The source of these data is patent US20130096028A1, “CELL CAPABLE OF EXPRESSING TSLP CONSTANTLY AND AT HIGH LEVEL, AND METHOD FOR SCREENING FOR TSLP MODULATOR UTILIZING THE CELL” (TOHOKU UNIVERSITY, priority 2010, published 2013).

The subject of test [1] is TSLP production of KCMH-1 cell. Kind of test: TSLP production of KCMH-1 cells, TSLP in culture supernatant quantified by ELISA. In kind it is cell-based, mouse. Conditions: BAY11-7082 10 μM, 24 hours, ELISA (FIG. 5). How it is done:
The KCMH-1 cells were suspended at a concentration of 1×10^5 cells/ml in an MEMU medium containing 10% FBS. 0.5 ml of the cell suspension was inoculated to each well of a 24-well cluster dish. 24 hours later, the medium was removed, and the cells were washed with phosphate-buffered saline (PBS). Then, 0.5 ml of an MEMU medium containing 10% FBS and each concentration of dexamethasone (0.1 or 1 μM) or FK506 ([…]) was added to the cells. 24 hours later, the culture solution was collected, and TSLP in the supernatant was quantified by ELISA (FIG. 2).
The KCMH-1 cells were suspended at a concentration of 1×10^5 cells/ml in an MEMU medium containing 10% FBS. 0.5 ml of the cell suspension was inoculated to each well of a 24-well cluster dish. […] 24 hours later, the culture solution was collected, and TSLP in the supernatant was quantified by ELISA (FIG. 3).
The KCMH-1 cells were suspended at a concentration of 1×10^5 cells/ml in an MEMU medium containing 10% FBS. […] 24 hours later, the culture solution was collected, and TSLP in the supernatant was quantified by ELISA (FIG. 4).
The KCMH-1 cells were suspended at a concentration of 1×10^5 cells/ml in an MEMU medium containing 10% FBS. […] 24 hours later, the culture solution was collected, and TSLP in the supernatant was quantified by ELISA (FIG. 5).

In a further test the test system is human TSLP mRNA. Particulars: human airway epithelial cell lines; cited from earlier work.

As to `Cc1ccc(S(=O)(=O)/C=C/C#N)cc1` [BAY11-7082], the “TSLP production in the KCMH-1 cells” value in test [1] is “partially inhibited”.

For `CC1=C(/C=C/C(C)=C\C=C\C(C)=C\C(=O)O)C(C)(C)CCC1` [9-cis-retinoic acid], the “expression of human TSLP mRNA by IL-1β” value with human TSLP mRNA is “inhibits”.
